Experimental data as given in US7087736B1, “Tyrosine DNA phosphodiesterases (TDP) and related polypeptides nucleic acids vectors TDP producing host cells antibodies and methods of use” (priority 1999, dated 2006).

Tested on: Saccharomyces cervisiae strains (parental, enz mutant, HNY243, HNY244)
Experiment: Sensitivity of yeast strains to killing by drug (colony survival after 24 hrs)
Format: cell-based
From the text: The strains were compared for sensitivity to killing by camptothecin. Despite the dramatic difference in TDP activity, the parental line and the backcrossed enz mutant were insensitive to camptothecin. When combined with a disruption of the RAD9 gene, the camptothecin sensitivity of the low activity mutant (strain HNY244) was increased by a factor of 12 relative to the rad9 derivative of the parental strain HNY243. The same difference was observed after the mutant had undergone two additional rounds of backcrossing. In order to confirm that camptothecin-induced damage was due to topoisomerase trapping, the TOP1 gene of HNY244 was disrupted and survival increased nearly 1,000-fold.
Each pool was separately grown and treated with camptothecin for 24 hours. Cells were grown to near-saturation in medium with glycerol in place of dextrose (YPG) to ensure a starting population with few or no petite derivatives in accordance with standard methods. These cells were resuspended at OD650=0.4 in YPD (bacto-yeast extract, peptone and dextrose standard yeast growth medium), grown for 2 hrs and diluted again in YPD to OD650=0.4. Drug was then added and samples were withdrawn immediately and after 24 hrs at 30° C. After dilution and plating on YPD, surviving colonies were counted after 3-4 days of growth. When plasmid-containing strains were assessed for camptothecin sensitivity, YPD was replaced throughout by uracil-deficient minimal medium to ensure plasmid retention. The survivors were amplified by growth in YPD.

| SMILES | sensitization of the mutant line to killing (low TDP activity mutant line) | camptothecin sensitivity of YBR223c disruption strain (HNY243 with YBR223c ORF disrupted) | camptothecin resistance after transformation (HNY244 transformed with pNS2 or pAXb) | sensitivity to killing by camptothecin (backcrossed enz mutant (low TDP activity)) | increase of camptothecin sensitivity relative to rad9 derivative of parental strain HNY243 (low activity mutant with RAD9 disruption (strain HNY244)) | sensitivity to killing by camptothecin (parental line (normal TDP activity)) | increase of survival after disruption of TOP1 gene (strain HNY244 with TOP1 disrupted, camptothecin-induced damage) |
| --- | --- | --- | --- | --- | --- | --- | --- |
| COS(C)(=O)=O [methyl methane sulfonate] | not sensitized | – | – | – | – | – | – |
| CC[C@@]1(O)C(=O)OCc2c1cc1n(c2=O)Cc2cc3ccccc3nc2-1 [camptothecin] | – | very similar to that of HNY244 | improved camptothecin resistance | insensitive | 12 factor | insensitive | ~1,000 fold |
